Consider seven compounds from patent publication US10174013B2, “Benzimidazole derivatives as kinase inhibitors” (SELVITA S.A., priority 2012, dated 2019).

Molecules are shown by their SMILES. Counter-ions that a name gives are not always drawn. Like-named read-outs stand apart in the source and are kept apart here.

One data set has as its system HepG2 cells. Description: Growth inhibition, MTS assay, HepG2. The conditions noted are these: MTS cell viability, read-out: HepG2 ED50. The class given is cell-based, Human.
The target of another data set is CYP3A4 (Homo sapiens (Human), UniProt P08684). Put plainly: Cytochrome P450 inhibition, fluorescence, CYP3A4. The class given is in vitro ADME. Particulars: recombinant CYP3A4, fluorescence detection; read-out: CYP inhibition (CYP 3A4 screening, IC50 class). The method, boiled down: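 Recombinant human CYP3A4 was incubated at 37 °C for 30–45 min with a fluorogenic probe substrate near apparent Km and serially diluted compound, after ≥10 min preincubation with an NADPH-regenerating system. Fluorescence was read after stopping, with compound autofluorescence measured beforehand and no-inhibitor and pre-stopped blanks as controls.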
Sequence of CYP3A4 (P08684 whole entry): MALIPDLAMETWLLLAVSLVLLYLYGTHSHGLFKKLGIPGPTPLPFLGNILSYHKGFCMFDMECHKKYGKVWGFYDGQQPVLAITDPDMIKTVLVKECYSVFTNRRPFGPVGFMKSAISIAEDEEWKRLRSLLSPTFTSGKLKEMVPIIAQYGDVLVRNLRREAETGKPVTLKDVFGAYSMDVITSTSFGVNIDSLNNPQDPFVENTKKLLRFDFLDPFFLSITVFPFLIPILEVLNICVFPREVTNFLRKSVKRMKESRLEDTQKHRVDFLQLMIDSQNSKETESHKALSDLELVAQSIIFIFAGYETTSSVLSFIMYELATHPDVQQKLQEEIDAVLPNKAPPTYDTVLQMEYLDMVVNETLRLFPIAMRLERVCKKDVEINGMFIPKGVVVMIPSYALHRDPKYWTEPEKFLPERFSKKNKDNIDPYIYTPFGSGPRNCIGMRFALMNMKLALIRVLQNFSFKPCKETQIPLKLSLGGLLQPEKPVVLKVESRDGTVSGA

In another data set the target is Pim-3 (Homo sapiens (Human), UniProt Q86V86). Description: ADP-Glo Kinase Assay, Pim-3. The class given is biochemical. The conditions noted are these: 1 μM compound; for inhibition at 1 µM: read-out: Pim-3 % INH (1 μM). A digest of the protocol:
(§1)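 Buffer was MOPS 5 mM (pH 7.5) with MgCl2, EDTA and DTT; ATP set at apparent Km per kinase. Compounds were diluted in assay buffer to 1000 nM. Kinase-generated ADP was converted to luciferase signal and normalised to percent inhibition.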

Another data set has as its target Pim-1 (Homo sapiens (Human), UniProt P11309). Put plainly: ADP-Glo Kinase Assay, Pim-1. The class given is biochemical. Particulars: 1 μM compound; for inhibition at 1 µM: read-out: Pim-1 % INH (1 μM). The method, boiled down: as §1
In general terms: ADP-Glo turns the ADP formed in a reaction into a luminescent signal.

Another data set concerns the target CDK2/E (Homo sapiens (Human), UniProt P24941). Description: ADP-Glo Kinase Assay, CDK2/E. The format is biochemical. The conditions noted are these: 1 μM compound; for inhibition at 1 µM: read-out: CDK2/E % INH (1 μM). The method, boiled down:
as §1

For the next data set, the system named is MV4-11 cells. Put plainly: Growth inhibition, MTS assay, MV4-11. The conditions noted are these: MTS cell viability, read-out: MV4-11 ED50. The class given is cell-based, Human.
The target in a further data set is Pim-2 (Homo sapiens (Human), UniProt Q9P1W9). Description: ADP-Glo Kinase Assay, Pim-2. The class given is biochemical. The conditions noted are these: 1 μM compound; for inhibition at 1 µM: read-out: Pim-2 % INH (1 μM). A digest of the protocol: as §1
Sequence of Pim-2 (Q9P1W9 whole entry): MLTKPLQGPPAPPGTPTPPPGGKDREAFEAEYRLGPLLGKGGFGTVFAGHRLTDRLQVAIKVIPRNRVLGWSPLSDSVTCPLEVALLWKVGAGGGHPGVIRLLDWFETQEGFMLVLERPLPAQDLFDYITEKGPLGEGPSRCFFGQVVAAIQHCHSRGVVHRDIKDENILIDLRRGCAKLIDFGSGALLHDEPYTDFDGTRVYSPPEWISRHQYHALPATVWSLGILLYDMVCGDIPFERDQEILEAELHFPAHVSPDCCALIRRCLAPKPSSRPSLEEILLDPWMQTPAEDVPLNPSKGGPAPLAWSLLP
Another data set has as its target DYRK1 (Homo sapiens (Human), UniProt Q13627). Put plainly: ADP-Glo Kinase Assay, DYRK1. The class given is biochemical. The conditions noted are these: 1 μM compound; for inhibition at 1 µM: read-out: DYRK1A % INH (1 μM). A digest of the protocol: as §1
The test system of the next data set is HEL92 cells. Description: Growth inhibition, MTS assay, HEL92. The format is cell-based, Human. The conditions noted are these: MTS cell viability, read-out: HEL92 ED50. For orientation: Formazan colour is commonly taken as a measure of viable cells.

Sequence of Pim-1 (P11309 whole entry): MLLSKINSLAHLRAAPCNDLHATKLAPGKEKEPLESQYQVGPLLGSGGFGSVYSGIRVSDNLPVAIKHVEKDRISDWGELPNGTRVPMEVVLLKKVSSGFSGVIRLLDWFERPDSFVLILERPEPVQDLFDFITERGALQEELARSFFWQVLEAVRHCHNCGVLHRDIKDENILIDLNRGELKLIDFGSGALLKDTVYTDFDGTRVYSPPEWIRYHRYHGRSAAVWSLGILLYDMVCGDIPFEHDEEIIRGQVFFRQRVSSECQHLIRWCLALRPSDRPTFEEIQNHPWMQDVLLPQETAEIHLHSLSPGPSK

In the case of `CCn1c(N2CCNCC2)nc2c([N+](=O)[O-])c(Br)c(Br)cc21` [Example 1A, 5,6-dibromo-1-ethyl-4-nitro-2-(piperazin-1-yl)-1H-1,3-benzodiazole hydrochloride], the IC50 is 1300 nM in the data set on HepG2 cells (Homo sapiens, HepG2, 72 hours); 3300 to 10000 nM on CYP3A4; 500 nM with MV4-11 cells (Homo sapiens, MV4-11, 72 hours); 2600 nM in the data set with HEL92 cells (Homo sapiens, 72 hours). Further, the inhibition at 1 µM on Pim-3 was 65%; at Pim-1 it was 81%; on CDK2/E it was below 5%; on Pim-2, 22%; on DYRK1, 66%.

For the compound `CC(C)n1c(N2CCNC[C@H]2C)nc2c([N+](=O)[O-])c(Br)c(Br)cc21` [Example 1AX], the IC50 is 100 nM in the data set on HepG2 cells (72 hours), 1100 to 3300 nM at CYP3A4, 100 nM in the data set on MV4-11 cells (72 hours) and 100 nM in the data set with HEL92 cells (72 hours). In addition, the “Pim-3 % INH (1 μM)” value at Pim-3 came out at 95%. Besides, the “Pim-1 % INH (1 μM)” value on Pim-1 was above 95%. For the same compound, the “Pim-2 % INH (1 μM)” value on Pim-2 is listed as 77%. Moreover, the “DYRK1A % INH (1 μM)” value on DYRK1 is given as above 95%.

For `CC(C)n1c(N2CC[C@@H](N)C2)nc2c(C#N)c(Br)c(Br)cc21` [Example 1BI], the IC50 was 1500 nM with HepG2 cells (Homo sapiens, HepG2, 72 h); 1100 to 3300 nM on CYP3A4; 600 nM with MV4-11 cells (Homo sapiens, MV4-11, 72 h); 5100 nM with HEL92 cells (Homo sapiens, 72 h). Also, the inhibition at 1 µM is 95% at Pim-3; above 95% at Pim-1; 22% at CDK2/E; 82% on Pim-2; 79% on DYRK1.

Consider `CCCn1c(N2CCNCC2)nc2c([N+](=O)[O-])c(Br)c(Br)cc21` [Example 1M], for which the IC50 in the data set with HepG2 cells (72 hours) was 1800 nM; at CYP3A4, 1100 to 3300 nM; in the data set with MV4-11 cells (72 hours) it was 600 nM; in the data set with HEL92 cells (72 hours), 2200 nM. The “Pim-3 % INH (1 μM)” value at Pim-3 amounted to 73%. For the same compound, the “Pim-1 % INH (1 μM)” value on Pim-1 is on record as above 95%. For the same compound, the “CDK2/E % INH (1 μM)” value on CDK2/E is listed as below 5%. Moreover, on Pim-2, the “Pim-2 % INH (1 μM)” value is 44%. In addition, on DYRK1, the “DYRK1A % INH (1 μM)” value is recorded as above 95%.

As to `CC(C)n1c(N2CCNCC2)nc2c([N+](=O)[O-])c(Br)c(Br)cc21` [Example 2A, 5,6-dibromo-4-nitro-2-(piperazin-1-yl)-1-(propan-2-yl)-1H-1,3-benzodiazole hydrochloride], the IC50 in the data set with HepG2 cells (Homo sapiens, HepG2, 72 h) is 600 nM; at CYP3A4, 3300 to 10000 nM; in the data set with MV4-11 cells (Homo sapiens, MV4-11, 72 h) it was 300 nM; in the data set with HEL92 cells (Homo sapiens, 72 h), 700 nM. Moreover, the inhibition at 1 µM was 89% at Pim-3; above 95% at Pim-1; 44% on CDK2/E; 49% at Pim-2; above 95% at DYRK1.

For the compound `Cl.O=[N+]([O-])c1c(Br)c(Br)cc2c1nc(N1CCNCC1)n2C1CCCC1` [Example 2D, 5,6-dibromo-1-cyclopentyl-4-nitro-2-(piperazin-1-yl)-1H-1,3-benzodiazole hydrochloride], the IC50 in the data set with HepG2 cells (Homo sapiens, HepG2, 72 h) was 700 nM; at CYP3A4 it was 1100 to 3300 nM; in the data set on MV4-11 cells (Homo sapiens, MV4-11, 72 h), 600 nM; in the data set on HEL92 cells (Homo sapiens, 72 h) it was 4700 nM. The inhibition at 1 µM on Pim-3 was above 95%; on Pim-1, above 95%; at CDK2/E, 21%; on Pim-2, 53%; on DYRK1, above 95%.

Take `CC(C)n1c(C2CCNCC2)nc2c([N+](=O)[O-])c(Br)c(Br)cc21` [Example 26A, 5,6-dibromo-4-nitro-2-(piperidin-4-yl)-1-(propan-2-yl)-1H-1,3-benzodiazole]: the IC50 in the data set with HepG2 cells (Homo sapiens, HepG2, 72 h) is 600 nM; at CYP3A4 it was above 10000 nM; in the data set with MV4-11 cells (Homo sapiens, MV4-11, 72 h), 200 nM; in the data set with HEL92 cells (Homo sapiens, 72 h), 900 nM. Besides, the inhibition at 1 µM at Pim-3 was 90%; on Pim-1, above 95%; at CDK2/E, 36%; at Pim-2, 68%; at DYRK1, above 95%.
